Among the test systems are SW-620 colon; UO-31 renal; HCT-15 colon; OVCAR-5 ovarian; HCC-2998 colon; RPMI-8226 leukemia; MDA-N; COLO 205 colon; SK-MEL-2 melanoma; U251 CNS.
What all share (assay): inhibition of tumour cell growth, NCI panel, 48 h

Several values for one entry are separate records, joined by “and”; a condition that tells them apart may be missing. Equal values may be shown once.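 Compound exposure: 48 hours, 5 concentrations, 96-well plates. Here, GI50 denotes the concentration required for 50% inhibition of growth. TGI: total growth inhibition.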

Consider `COCc1cc2c(s1)C(=O)C1=C(C2=O)C2(C=C(Br)C(=O)C(Br)=C2)CCN1`, for which the TGI in the test on SW-620 colon came to 10.6 µM; with UO-31 renal it was 25.4 µM; in the test on HCT-15 colon, 14.7 µM; in the test with OVCAR-5 ovarian it was 29.5 µM; in the test on HCC-2998 colon, 24.8 µM; in the test with RPMI-8226 leukemia, 19.8 µM. In addition, the TGI worked out at 3.11 µM in the test on MDA-N, 12.4 µM in the test with COLO 205 colon, 15.2 µM in the test on SK-MEL-2 melanoma and 23.7 µM in the test with U251 CNS.
Turning to `COc1ccccc1N=Nc1c(O)ccc2ccccc12`, the TGI in the test on SW-620 colon is above 100 µM; in the test with UO-31 renal, 39.1 µM; in the test on HCT-15 colon, above 100 µM; with OVCAR-5 ovarian, above 100 µM; in the test on HCC-2998 colon, 71 µM; with RPMI-8226 leukemia, above 100 µM. The TGI in the test on MDA-N was above 100 µM; with COLO 205 colon, above 100 µM; in the test with SK-MEL-2 melanoma, above 100 µM; in the test with U251 CNS it was > 62.4 µM and 40.4 µM. Besides, in the test on RPMI-8226 leukemia, the GI50 is 30.4 µM and > 100 µM.
For `COc1cc(C=O)cc(C=Nc2ccc(Br)cc2)c1O`, the TGI in the test on SW-620 colon is above 100 µM; in the test on UO-31 renal, 50.6 µM; with HCT-15 colon, above 100 µM; with OVCAR-5 ovarian it was above 100 µM; in the test with HCC-2998 colon it was 38.9 µM; in the test with RPMI-8226 leukemia, 21.8 µM. Besides, the TGI in the test with MDA-N is 35.7 µM; with COLO 205 colon it was 36.3 µM; with SK-MEL-2 melanoma it was 17.6 µM; with U251 CNS it was above 100 µM.
Consider `CCNC(=S)N/N=C(/C)c1cccc(/C(C)=N\NC(=S)NCC)n1`, for which the TGI in the test on SW-620 colon was above 100 µM; with UO-31 renal, above 63.6 µM; in the test with HCT-15 colon, above 57 µM; with OVCAR-5 ovarian it was above 72.8 µM; with HCC-2998 colon, above 96.7 µM; in the test on RPMI-8226 leukemia it was 25.7 µM. The TGI in the test on MDA-N was above 45.8 µM; with COLO 205 colon it was above 23.5 µM; with SK-MEL-2 melanoma, above 93.1 µM; in the test on U251 CNS it was 58 µM.

The values above are taken from PubChem BioAssay (NCI).
